Test results published in patent EP4786455A1, “NOVEL PHTHALAZINE DERIVATIVE COMPOUND AS SOS1 INHIBITOR, AND USE THEREOF” (Hanmi Pharmaceutical Co., Ltd., priority 2023, dated 2025).

Target: T1, SOS1 (Homo sapiens, UniProt Q07889)
T1 construct: comprising amino acid residues 564-1049 corresponding to the catalytic domain; purchased Reaction Biology Corp. SOS1-Strep #MSC-11-502; GST-KRAS G12C #MSC-11-538
T1 sequence (Q07889 564-1049): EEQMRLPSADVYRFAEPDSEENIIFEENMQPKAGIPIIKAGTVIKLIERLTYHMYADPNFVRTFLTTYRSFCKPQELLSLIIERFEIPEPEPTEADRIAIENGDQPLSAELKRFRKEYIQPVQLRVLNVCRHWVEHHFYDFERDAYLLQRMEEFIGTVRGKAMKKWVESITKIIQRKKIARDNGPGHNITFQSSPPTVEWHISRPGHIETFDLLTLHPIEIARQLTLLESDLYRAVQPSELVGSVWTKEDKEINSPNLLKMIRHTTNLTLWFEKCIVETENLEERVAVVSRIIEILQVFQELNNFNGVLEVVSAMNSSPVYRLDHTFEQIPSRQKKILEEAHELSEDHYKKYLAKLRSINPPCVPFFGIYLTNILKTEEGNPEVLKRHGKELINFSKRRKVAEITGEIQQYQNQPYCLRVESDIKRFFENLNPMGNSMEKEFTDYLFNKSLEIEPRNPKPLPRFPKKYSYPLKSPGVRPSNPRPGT
Assay: Inhibitory activity on SOS1-mediated GTP exchange (HTRF / TR-FRET nucleotide exchange assay on KRAS G12C)
Type: biochemical
Details: SOS1-mediated GTP exchange on GST-KRAS G12C (residues 2-169); SOS1-Strep catalytic domain (564-1049); GTP-DY-647P1; HTRF signal; 5-point concentration series up to 1,000 nM
Experimental: To evaluate whether the SOS1-mediated nucleotide exchange activity on KRAS G12C is inhibited by the compounds of the above Examples, a homogeneous time-resolved fluorescence (homogenous time-resolved fluorescence, HTRF) assay was performed using GST-KRAS G12C (#MSC-11-538) and SOS1-Strep (#MSC-11-502) obtained from Reaction Biology Corp. (USA, MA). The activity of SOS1 was determined by measuring the amount of GTP bound to the KRAS G12C protein based on the principle of time-resolved fluorescence resonance energy transfer (time-resolved fluorescence energy transfer, TR-FRET). Terbium (Terbium) conjugated to an anti-GST antibody bound to the GST tag of the GST-KRAS G12C protein served as a FRET donor, and GTP bound to the KRAS G12C protein was labeled with the fluorophore DY-647P1, serving as a FRET acceptor. Based on this principle, a higher HTRF or FRET signal is observed as more GTP is bound to KRAS G12C due to the SOS1-mediated exchange reaction in the assay.
In summary, a GST-labeled KRAS G12C protein (comprising amino acid residues 2-169), a […] SOS1 protein (comprising amino acid residues 564-1049 corresponding to the catalytic domain), an anti-GST antibody, labeled nucleotide GTP-DY-647P1, and the test compound were mixed in a buffer solution containing 20 mM HEPES (pH 7.4), 150 mM NaCl, 5 mM MgCl2, 1 mM dithiothreitol (DTT), 0.05% BSA, and 0.0025% NP40. The mixture was dispensed into a 384-well plate, incubated at room temperature, and the HTRF signal was measured using a PHERAstar microplate reader (BMG Labtech). The excitation wavelength was 337 nm, and emission was measured at 620/665 nm. A background signal value was determined from fluorescence measurements obtained in the absence of SOS1 protein and was subtracted from all measured HTRF values. A control value was determined from fluorescence measurements obtained in the absence of the synthesized compounds and was set as the 100% reference. Fluorescence signals were measured at compound concentrations of 0.1, 1, 10, 100, and 1,000 nM (5 points, 10-fold) or 1.6, 8, 40, 200, and 1,000 nM (5 points, 5-fold). The 50% inhibitory concentration (IC50) values of the compounds were calculated using GraphPad Prism.
IC50 values were denoted as +++ when 50 nM or less, ++ when greater than 50 nM and 100 nM or less, and + when greater than 100 nM.

Structure (SMILES) | IC50 [nM]
CNc1cc2c(N[C@H](C)c3cccc(C#N)c3C)nnc(C)c2cc1C(=O)NC1CCOCC1 [Example 5, (R)-1-((1-(3-cyano-2-methylphenyl)ethyl)amino)-4-methyl-7-(methylamino)-N-(tetrahydro-2H-pyran-4-yl)phthalazine-6-carboxamide] | ≤ 50
CNc1cc2c(N[C@H](C)c3cccc(C#N)c3C)nnc(C)c2cc1C(=O)N1CCCC1 [Example 14, (R)-2-methyl-3-(1-((4-methyl-7-(methylamino)-6-(pyrrolidine-1-carbonyl)phthalazin-1-yl)amino)ethyl)benzonitrile] | ≤ 50
CNc1cc2c(N[C@H](C)c3cccc(C(F)(F)CO)c3)nnc(C)c2cc1C(=O)N1CCOCC1 [Example 27, (R)-(1-((1-(3-(1,1-difluoro-2-hydroxyethyl)phenyl)ethyl)amino)-4-methyl-7-(methylamino)phthalazin-6-yl)(morpholino)methanone] | ≤ 50
CNc1cc2c(N[C@H](C)c3cc(N)cc(C(F)F)c3F)nnc(C)c2cc1C(=O)N1CCOCC1 [Example 26, (R)-(1-((1-(5-amino-3-(difluoromethyl)-2-fluorophenyl)ethyl)amino)-4-methyl-7-(methylamino)phthalazin-6-yl)(morpholino)methanone] | ≤ 50
COc1cc2c(N[C@H](C)c3cccc(C#N)c3C)nnc(C)c2cc1CN1CCOCC1 [Example 28, (R)-3-(1-((7-methoxy-4-methyl-6-(morpholinomethyl)phthalazin-1-yl)amino)ethyl)-2-methylbenzonitrile] | ≤ 50
Cc1c(C#N)cccc1[C@@H](C)Nc1nnc(C)c2cc(CN3CCOCC3)c(NC3CCCC3)cc12 [Example 30, (R)-3-(1-((7-(cyclopentylamino)-4-methyl-6-(morpholinomethyl)phthalazin-1-yl)amino)ethyl)-2-methylbenzonitrile] | ≤ 50
CNc1cc2c(N[C@H](C)c3cccc(C#N)c3C)nnc(C)c2cc1CN1CCOCC1 [Example 29, (R)-2-methyl-3-(1-((4-methyl-7-(methylamino)-6-(morpholinomethyl)phthalazin-1-yl)amino)ethyl)benzonitrile] | ≤ 50
CNc1cc2c(N[C@H](C)c3cccc(C#N)c3C)nnc(C)c2cc1C(=O)N1CCN(C(C)C)CC1 [Example 21, (R)-3-(1-((6-(4-isopropylpiperazine-1-carbonyl)-4-methyl-7-(methylamino)phthalazin-1-yl)amino)ethyl)-2-methylbenzonitrile] | ≤ 50
Cc1c(C#N)cccc1[C@@H](C)Nc1nnc(C)c2cc(CN3CCN(C4CC4)CC3)c(NC3CCCC3)cc12 [Example 31, (R)-3-(1-((7-(cyclopentylamino)-6-((4-cyclopropylpiperazin-1-yl)methyl)-4-methylphthalazin-1-yl)amino)ethyl)-2-methylbenzonitrile] | ≤ 50
CNc1cc2c(N[C@H](C)c3cccc(C#N)c3C)nnc(C)c2cc1C(=O)N1CCS(=O)(=O)CC1 [Example 4, (R)-3-(1-((6-(1,1-dioxothiomorpholine-4-carbonyl)-4-methyl-7-(methylamino)phthalazin-1-yl)amino)ethyl)-2-methylbenzonitrile] | ≤ 50
Cc1c(C#N)cccc1[C@@H](C)Nc1nnc(C)c2cc(C(=O)N3CCOCC3)c(NC3CCCC3)cc12 [Example 33] | ≤ 50
CNc1cc2c(N[C@H](C)c3cccc(C#N)c3C)nnc(C)c2cc1C(=O)N(C)C1CCOCC1 [Example 6, (R)-1-((1-(3-cyano-2-methylphenyl)ethyl)amino)-N,4-dimethyl-7-(methylamino)-N-(tetrahydro-2H-pyran-4-yl)phthalazine-6-carboxamide] | ≤ 50

Next, values leading:

IC50 [nM] | Structure (SMILES)
≤ 50 | CNc1cc2c(N[C@H](C)c3cccc(C#N)c3C)nnc(C)c2cc1C(=O)N1CCSCC1 [Example 2, (R)-2-methyl-3-(1-((4-methyl-7-(methylamino)-6-(thiomorpholine-4-carbonyl)phthalazin-1-yl)amino)ethyl)benzonitrile]
≤ 50 | CNc1cc2c(N[C@H](C)c3cccc(C#N)c3C)nnc(C)c2cc1C(=O)N1CCC(F)(F)CC1 [Example 10, (R)-3-(1-((6-(4,4-difluoropiperidin-1-carbonyl)-4-methyl-7-(methylamino)phthalazin-1-yl)amino)ethyl)-2-methylbenzonitrile]
≤ 50 | CNc1cc2c(N[C@H](C)c3cccc(C#N)c3C)nnc(C)c2cc1C(=O)N1CCN(C2CCCCC2)CC1 [Example 20, (R)-3-(1-((6-(4-cyclohexylpiperazine-1-carbonyl)-4-methyl-7-(methylamino)phthalazin-1-yl)amino)ethyl)-2-methylbenzonitrile]
≤ 50 | CNc1cc2c(N[C@H](C)c3cccc(C#N)c3C)nnc(C)c2cc1C(=O)N1CC2(COC2)C1 [Example 11, (R)-2-methyl-3-(1-((4-methyl-7-(methylamino)-6-(2-oxa-6-azaspiro[3.3]heptane-6-carbonyl)phthalazin-1-yl)amino)ethyl)benzonitrile]
≤ 50 | CNc1cc2c(N[C@H](C)c3cccc(C#N)c3C)nnc(C)c2cc1C(=O)N1CCNCC1 [Example 9, (R)-2-methyl-3-(1-((4-methyl-7-(methylamino)-6-(piperazine-1-carbonyl)phthalazin-1-yl)amino)ethyl)benzonitrile]
≤ 50 | CNc1cc2c(N[C@H](C)c3cccc(C#N)c3C)nnc(C)c2cc1C(=O)N1CCC2(CC2)C1 [Example 18, (R)-2-methyl-3-(1-((4-methyl-7-(methylamino)-6-(5-azaspiro[2.4]heptane-5-carbonyl)phthalazin-1-yl)amino)ethyl)benzonitrile]
≤ 50 | CNc1cc2c(N[C@H](C)c3cccc(C#N)c3C)nnc(C)c2cc1C(=O)N1CCN(C)CC1 [Example 8, (R)-2-methyl-3-(1-((4-methyl-7-(methylamino)-6-(4-methylpiperazine-1-carbonyl)phthalazin-1-yl)amino)ethyl)benzonitrile]
≤ 50 | CNc1cc2c(N[C@H](C)c3cccc(C#N)c3C)nnc(C)c2cc1C(=O)NCCN1CCOCC1 [Example 23, (R)-1-((1-(3-cyano-2-methylphenyl)ethyl)amino)-4-methyl-7-(methylamino)-N-(2-morpholinoethyl)phthalazine-6-carboxamide]
≤ 50 | CNc1cc2c(N[C@H](C)c3cccc(C#N)c3C)nnc(C)c2cc1C(=O)N1CCC(N2CCOCC2)CC1 [Example 22, (R)-2-methyl-3-(1-((4-methyl-7-(methylamino)-6-(4-morpholinopiperidin-1-carbonyl)phthalazin-1-yl)amino)ethyl)benzonitrile]
≤ 50 | CNc1cc2c(N[C@H](C)c3cccc(C#N)c3C)nnc(C)c2cc1C(=O)N1CC(F)C1 [Example 17, (R)-3-(1-((6-(3-fluoroazetidine-1-carbonyl)-4-methyl-7-(methylamino)phthalazin-1-yl)amino)ethyl)-2-methylbenzonitrile]
≤ 50 | CNc1cc2c(N[C@H](C)c3cccc(C#N)c3C)nnc(C)c2cc1C(=O)N1CCSC1 [Example 3, (R)-2-methyl-3-(1-((4-methyl-7-(methylamino)-6-(thiazolidine-3-carbonyl)phthalazin-1-yl)amino)ethyl)benzonitrile]
≤ 50 | COc1cc2c(N[C@H](C)c3cccc(C#N)c3C)nnc(C)c2cc1C(=O)N1CCOCC1 [Example 32, (R)-3-(1-((7-methoxy-4-methyl-6-(morpholine-4-carbonyl)phthalazin-1-yl)amino)ethyl)-2-methylbenzonitrile]
